Measured values from ChEMBL document CHEMBL1150975, “Biochemical and three-dimensional-structural study of the specific inhibition of protein kinase CK2 by [5-oxo-5,6-dihydroindolo-(1,2-a)quinazolin-7-yl]acetic acid (IQA)” (Biochem J, 2003).

Experiments:
[1] = molecular target: Casein kinase I (Homo sapiens) (UniProt Q9HCP0+P78368+P48730+P49674+P48729); assay: Percent residual CK1 activity in the presence of 10uM inhibitor; format: protein assay
[2] = molecular target: Fibroblast growth factor receptor 1 (Homo sapiens) (UniProt P11362); assay: Percent residual FGFR1 activity in the presence of 10uM inhibitor
[3] = molecular target: Dual specificity tyrosine-phosphorylation-regulated kinase 1A (Homo sapiens, UniProt Q13627); assay: Inhibition of DYRK1a
[4] = molecular target: Vascular endothelial growth factor receptor 2 (Homo sapiens) (UniProt P35968); assay: Percent residual KDR activity in the presence of 10uM inhibitor
[5] = molecular target: Mitogen-activated protein kinase 1 (Homo sapiens) (UniProt P28482); assay: Percent residual ERK2 activity in the presence of 10uM inhibitor
Mitogen-activated protein kinase 1 (Homo sapiens), sequence (P28482 whole entry): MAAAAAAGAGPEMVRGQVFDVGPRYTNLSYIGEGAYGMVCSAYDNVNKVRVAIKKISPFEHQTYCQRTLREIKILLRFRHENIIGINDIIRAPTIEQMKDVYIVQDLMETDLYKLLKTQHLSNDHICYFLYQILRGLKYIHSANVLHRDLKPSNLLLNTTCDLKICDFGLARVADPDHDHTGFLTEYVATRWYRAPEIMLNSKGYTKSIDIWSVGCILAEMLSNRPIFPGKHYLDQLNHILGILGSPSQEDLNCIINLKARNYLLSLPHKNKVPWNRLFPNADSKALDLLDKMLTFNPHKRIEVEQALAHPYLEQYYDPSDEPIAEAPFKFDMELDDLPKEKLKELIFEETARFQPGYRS

[6] = molecular target: Epidermal growth factor receptor (Homo sapiens) (UniProt P00533); assay: Percent residual Her-1 activity in the presence of 10uM inhibitor
Epidermal growth factor receptor (Homo sapiens), sequence (P00533 whole entry, canonical isoform): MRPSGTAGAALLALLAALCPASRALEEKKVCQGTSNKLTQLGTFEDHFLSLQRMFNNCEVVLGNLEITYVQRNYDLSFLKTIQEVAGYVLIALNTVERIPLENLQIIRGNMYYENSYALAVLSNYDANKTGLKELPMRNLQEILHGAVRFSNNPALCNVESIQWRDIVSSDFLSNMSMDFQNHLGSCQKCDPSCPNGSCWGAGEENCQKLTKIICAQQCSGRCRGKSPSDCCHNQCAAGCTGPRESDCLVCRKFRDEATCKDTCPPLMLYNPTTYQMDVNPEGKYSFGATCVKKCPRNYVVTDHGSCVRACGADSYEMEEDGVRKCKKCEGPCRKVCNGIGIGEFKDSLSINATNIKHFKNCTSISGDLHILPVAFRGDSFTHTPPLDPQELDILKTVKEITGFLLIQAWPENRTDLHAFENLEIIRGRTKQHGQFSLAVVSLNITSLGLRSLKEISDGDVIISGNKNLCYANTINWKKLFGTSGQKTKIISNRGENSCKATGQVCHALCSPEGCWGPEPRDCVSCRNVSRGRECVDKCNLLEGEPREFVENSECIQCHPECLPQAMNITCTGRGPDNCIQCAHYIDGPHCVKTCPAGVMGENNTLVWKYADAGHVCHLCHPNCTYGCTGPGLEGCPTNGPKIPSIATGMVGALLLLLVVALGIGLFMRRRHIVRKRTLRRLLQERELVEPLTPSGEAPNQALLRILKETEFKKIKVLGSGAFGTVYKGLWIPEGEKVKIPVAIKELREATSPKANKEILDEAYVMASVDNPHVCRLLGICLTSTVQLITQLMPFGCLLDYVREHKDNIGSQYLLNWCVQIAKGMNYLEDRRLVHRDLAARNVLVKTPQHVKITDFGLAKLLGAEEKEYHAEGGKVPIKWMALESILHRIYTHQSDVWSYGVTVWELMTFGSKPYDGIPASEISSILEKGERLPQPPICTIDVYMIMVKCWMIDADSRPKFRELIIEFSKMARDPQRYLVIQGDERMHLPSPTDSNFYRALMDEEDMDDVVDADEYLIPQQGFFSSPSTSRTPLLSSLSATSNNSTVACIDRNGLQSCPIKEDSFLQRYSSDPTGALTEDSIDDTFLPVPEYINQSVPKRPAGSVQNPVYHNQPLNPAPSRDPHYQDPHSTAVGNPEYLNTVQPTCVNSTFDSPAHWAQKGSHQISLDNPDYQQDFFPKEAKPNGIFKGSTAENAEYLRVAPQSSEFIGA

[7] = molecular target: Phosphatidylinositol 4,5-bisphosphate 3-kinase catalytic subunit gamma isoform (Homo sapiens, UniProt P48736); assay: Inhibition of PI3K gamma
[8] = molecular target: T1, Mitogen-activated protein kinase 12 (Homo sapiens) (UniProt P53778); assay: Percent residual p38-gamma activity in the presence of 10uM inhibitor
T1 sequence (whole entry): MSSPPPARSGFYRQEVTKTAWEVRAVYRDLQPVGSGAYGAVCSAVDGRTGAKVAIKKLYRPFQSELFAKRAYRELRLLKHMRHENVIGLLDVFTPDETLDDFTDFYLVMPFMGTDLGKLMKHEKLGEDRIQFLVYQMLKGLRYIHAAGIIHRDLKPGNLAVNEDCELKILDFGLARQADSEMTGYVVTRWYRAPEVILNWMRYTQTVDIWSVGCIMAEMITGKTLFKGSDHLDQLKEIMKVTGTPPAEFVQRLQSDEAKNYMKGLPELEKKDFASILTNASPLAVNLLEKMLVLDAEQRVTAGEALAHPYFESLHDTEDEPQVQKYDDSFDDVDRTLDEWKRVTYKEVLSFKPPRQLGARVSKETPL

[9] = molecular target: T2, Serine/threonine-protein kinase Sgk1 (Homo sapiens) (UniProt O00141); assay: Percent residual SGK activity in the presence of 10uM inhibitor
T2 sequence (whole entry): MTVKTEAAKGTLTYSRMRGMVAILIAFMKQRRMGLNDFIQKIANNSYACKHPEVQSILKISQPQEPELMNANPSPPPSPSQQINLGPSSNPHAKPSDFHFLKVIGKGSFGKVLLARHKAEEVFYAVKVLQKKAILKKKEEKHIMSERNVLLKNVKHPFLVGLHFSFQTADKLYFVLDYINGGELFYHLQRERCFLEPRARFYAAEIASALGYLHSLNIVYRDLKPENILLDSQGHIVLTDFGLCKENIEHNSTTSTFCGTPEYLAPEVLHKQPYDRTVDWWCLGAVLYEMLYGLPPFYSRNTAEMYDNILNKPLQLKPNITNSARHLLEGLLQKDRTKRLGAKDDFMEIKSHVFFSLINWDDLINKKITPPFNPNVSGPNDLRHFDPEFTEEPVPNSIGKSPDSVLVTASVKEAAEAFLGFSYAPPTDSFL

[10] = molecular target: Angiopoietin-1 receptor (Homo sapiens) (UniProt Q02763); assay: Percent residual Tek activity in the presence of 10uM inhibitor
[11] = molecular target: Tyrosine-protein kinase Lck (Homo sapiens, UniProt P06239); assay: Inhibition of Lck
Tyrosine-protein kinase Lck, sequence (P06239 whole entry): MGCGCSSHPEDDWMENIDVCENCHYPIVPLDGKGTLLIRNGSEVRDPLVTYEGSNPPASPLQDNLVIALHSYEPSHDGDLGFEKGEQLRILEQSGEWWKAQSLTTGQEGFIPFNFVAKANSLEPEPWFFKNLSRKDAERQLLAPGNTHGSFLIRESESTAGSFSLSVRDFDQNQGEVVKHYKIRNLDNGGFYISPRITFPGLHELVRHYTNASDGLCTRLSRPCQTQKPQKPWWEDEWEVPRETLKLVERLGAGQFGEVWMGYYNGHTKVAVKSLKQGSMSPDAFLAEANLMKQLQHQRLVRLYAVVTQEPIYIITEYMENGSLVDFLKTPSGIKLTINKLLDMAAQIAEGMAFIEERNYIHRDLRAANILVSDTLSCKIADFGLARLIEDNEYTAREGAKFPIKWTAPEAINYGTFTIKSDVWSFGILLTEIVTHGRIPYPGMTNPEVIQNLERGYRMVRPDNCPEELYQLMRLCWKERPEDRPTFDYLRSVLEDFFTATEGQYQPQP

[12] = molecular target: Mast/stem cell growth factor receptor Kit (Homo sapiens) (UniProt P10721); assay: Percent residual c-Kit activity in the presence of 10uM inhibitor
[13] = molecular target: Ribosomal protein S6 kinase alpha-1 (Homo sapiens) (UniProt Q15418); assay: Percent residual MAPKAPK1 activity in the presence of 10uM inhibitor
Ribosomal protein S6 kinase alpha-1 (Homo sapiens), sequence (Q15418 whole entry): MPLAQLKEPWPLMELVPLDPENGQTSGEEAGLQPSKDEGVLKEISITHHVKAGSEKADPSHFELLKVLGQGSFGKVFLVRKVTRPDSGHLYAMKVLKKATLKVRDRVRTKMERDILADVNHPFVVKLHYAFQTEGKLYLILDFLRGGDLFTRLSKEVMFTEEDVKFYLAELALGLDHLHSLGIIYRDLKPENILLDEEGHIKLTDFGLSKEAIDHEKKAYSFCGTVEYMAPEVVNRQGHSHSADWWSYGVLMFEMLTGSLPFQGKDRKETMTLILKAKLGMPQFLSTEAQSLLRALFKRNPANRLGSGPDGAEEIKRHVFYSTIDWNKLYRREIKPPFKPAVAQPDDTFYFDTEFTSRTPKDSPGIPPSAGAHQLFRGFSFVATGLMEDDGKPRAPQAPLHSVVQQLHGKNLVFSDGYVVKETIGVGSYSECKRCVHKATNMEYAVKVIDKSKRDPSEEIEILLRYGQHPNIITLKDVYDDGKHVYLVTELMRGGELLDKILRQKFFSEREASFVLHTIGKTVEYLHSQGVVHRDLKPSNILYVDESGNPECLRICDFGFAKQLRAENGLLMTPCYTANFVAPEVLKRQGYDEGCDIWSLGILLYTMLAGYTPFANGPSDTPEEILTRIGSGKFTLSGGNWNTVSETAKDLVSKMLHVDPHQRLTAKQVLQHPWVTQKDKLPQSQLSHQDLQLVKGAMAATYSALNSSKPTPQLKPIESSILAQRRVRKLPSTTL

[14] = molecular target: T3, MAP kinase-activated protein kinase 5 (Homo sapiens) (UniProt Q8IW41); assay: Percent residual PRAK activity in the presence of 10uM inhibitor
T3 sequence (whole entry): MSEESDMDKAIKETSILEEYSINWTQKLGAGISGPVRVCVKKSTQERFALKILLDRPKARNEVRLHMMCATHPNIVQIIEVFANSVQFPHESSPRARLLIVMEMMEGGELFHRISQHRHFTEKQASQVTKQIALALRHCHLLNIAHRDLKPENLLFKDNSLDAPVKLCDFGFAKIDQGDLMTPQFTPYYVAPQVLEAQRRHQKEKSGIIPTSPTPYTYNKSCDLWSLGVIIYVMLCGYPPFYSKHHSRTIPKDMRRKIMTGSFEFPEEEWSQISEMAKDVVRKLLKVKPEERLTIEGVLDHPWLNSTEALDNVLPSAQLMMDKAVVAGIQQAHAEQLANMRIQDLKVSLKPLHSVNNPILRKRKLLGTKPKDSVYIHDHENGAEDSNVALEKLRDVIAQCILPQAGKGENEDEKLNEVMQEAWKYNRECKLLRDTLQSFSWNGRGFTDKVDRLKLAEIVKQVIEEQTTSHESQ

[15] = molecular target: Tyrosine-protein kinase ABL1 (Homo sapiens) (UniProt P00519); assay: Percent residual Abl activity in the presence of 10uM inhibitor
[16] = molecular target: Vascular endothelial growth factor receptor 1 (Homo sapiens) (UniProt P17948); assay: Percent residual Flt-1 activity in the presence of 10uM inhibitor
[17] = molecular target: Vascular endothelial growth factor receptor 3 (Homo sapiens) (UniProt P35916); assay: Percent residual Flt-4 activity in the presence of 10uM inhibitor
[18] = Inhibition of I174A-mutated CK2 holoenzyme; parameters: species or system Zea mays
[19] = molecular target: c-Jun N-terminal kinase, JNK (Homo sapiens) (UniProt P45983+P53779+P45984); assay: Percent residual JNK activity in the presence of 10uM inhibitor; format: protein assay
[20] = molecular target: T4, Glycogen synthase kinase-3 beta (Homo sapiens, UniProt P49841); assay: Inhibition of GSK3-beta
Target sequence in this assay (P49841 whole entry): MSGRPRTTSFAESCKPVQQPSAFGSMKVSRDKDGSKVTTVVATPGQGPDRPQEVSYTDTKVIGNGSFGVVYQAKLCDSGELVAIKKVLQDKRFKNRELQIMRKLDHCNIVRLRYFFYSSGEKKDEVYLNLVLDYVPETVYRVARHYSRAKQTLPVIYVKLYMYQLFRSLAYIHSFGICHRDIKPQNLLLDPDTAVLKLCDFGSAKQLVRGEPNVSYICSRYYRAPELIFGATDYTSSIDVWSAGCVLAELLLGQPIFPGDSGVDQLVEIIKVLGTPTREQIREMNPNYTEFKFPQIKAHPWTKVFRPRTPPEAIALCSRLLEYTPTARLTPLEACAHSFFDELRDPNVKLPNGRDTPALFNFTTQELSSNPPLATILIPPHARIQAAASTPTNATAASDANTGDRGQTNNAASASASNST

[21] = molecular target: MAP kinase-activated protein kinase 2 (Homo sapiens) (UniProt P49137); assay: Percent residual MAPKAPK2 activity in the presence of 10uM inhibitor
MAP kinase-activated protein kinase 2 (Homo sapiens), sequence (P49137 whole entry, looked up): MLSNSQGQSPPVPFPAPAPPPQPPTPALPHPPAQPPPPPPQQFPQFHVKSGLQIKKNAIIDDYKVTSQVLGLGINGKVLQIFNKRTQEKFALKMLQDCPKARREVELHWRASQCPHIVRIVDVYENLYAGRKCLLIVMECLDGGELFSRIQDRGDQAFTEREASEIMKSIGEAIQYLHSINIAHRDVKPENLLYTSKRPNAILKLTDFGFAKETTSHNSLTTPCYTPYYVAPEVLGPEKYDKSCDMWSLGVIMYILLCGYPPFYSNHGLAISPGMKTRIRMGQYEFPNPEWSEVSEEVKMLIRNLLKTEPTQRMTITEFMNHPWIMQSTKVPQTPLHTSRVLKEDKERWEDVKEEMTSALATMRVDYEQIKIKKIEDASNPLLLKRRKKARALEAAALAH

[22] = molecular target: Insulin receptor (Homo sapiens) (UniProt P06213); assay: Percent residual Ins-R activity in the presence of 10uM inhibitor
[23] = molecular target: Mitogen-activated protein kinase 14 (Homo sapiens) (UniProt Q16539); assay: Percent residual p38alpha activity in the presence of 10uM inhibitor
Mitogen-activated protein kinase 14 (Homo sapiens), sequence (Q16539 whole entry): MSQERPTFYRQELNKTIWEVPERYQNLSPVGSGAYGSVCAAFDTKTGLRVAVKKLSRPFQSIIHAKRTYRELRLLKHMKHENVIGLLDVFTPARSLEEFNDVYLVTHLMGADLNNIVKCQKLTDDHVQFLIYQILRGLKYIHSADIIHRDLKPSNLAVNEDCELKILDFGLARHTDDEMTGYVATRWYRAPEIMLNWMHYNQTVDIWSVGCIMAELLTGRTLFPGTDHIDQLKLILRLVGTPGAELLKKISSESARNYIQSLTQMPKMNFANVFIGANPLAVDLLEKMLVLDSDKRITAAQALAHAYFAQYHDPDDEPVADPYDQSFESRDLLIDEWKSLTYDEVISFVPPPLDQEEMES

[24] = molecular target: 5'-AMP-activated protein kinase catalytic subunit alpha-2 (Homo sapiens) (UniProt P54646); assay: Percent residual AMPK activity in the presence of 10uM inhibitor
5'-AMP-activated protein kinase catalytic subunit alpha-2 (Homo sapiens), sequence (P54646 whole entry, looked up): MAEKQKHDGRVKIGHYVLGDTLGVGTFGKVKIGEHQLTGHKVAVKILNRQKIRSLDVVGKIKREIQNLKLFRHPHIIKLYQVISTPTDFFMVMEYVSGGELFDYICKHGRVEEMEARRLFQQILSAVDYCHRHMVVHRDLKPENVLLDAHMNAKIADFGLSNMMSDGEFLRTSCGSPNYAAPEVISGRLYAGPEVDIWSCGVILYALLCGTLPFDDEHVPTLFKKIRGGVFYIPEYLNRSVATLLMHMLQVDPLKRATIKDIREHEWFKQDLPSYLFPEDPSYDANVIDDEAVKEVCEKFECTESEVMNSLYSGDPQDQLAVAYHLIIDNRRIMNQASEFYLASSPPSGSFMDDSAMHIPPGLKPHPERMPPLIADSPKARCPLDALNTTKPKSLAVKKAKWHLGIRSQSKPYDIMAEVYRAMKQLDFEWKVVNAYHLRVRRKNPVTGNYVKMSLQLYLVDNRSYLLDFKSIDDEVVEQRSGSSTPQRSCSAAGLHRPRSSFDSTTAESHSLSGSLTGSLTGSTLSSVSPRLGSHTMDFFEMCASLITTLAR

[25] = molecular target: EKC/KEOPS complex subunit BUD32 (Saccharomyces cerevisiae S288c) (UniProt P53323); assay: Percent residual PiD261 activity in the presence of 10uM inhibitor
EKC/KEOPS complex subunit BUD32 (Saccharomyces cerevisiae S288c), sequence (P53323 whole entry, one chain of several): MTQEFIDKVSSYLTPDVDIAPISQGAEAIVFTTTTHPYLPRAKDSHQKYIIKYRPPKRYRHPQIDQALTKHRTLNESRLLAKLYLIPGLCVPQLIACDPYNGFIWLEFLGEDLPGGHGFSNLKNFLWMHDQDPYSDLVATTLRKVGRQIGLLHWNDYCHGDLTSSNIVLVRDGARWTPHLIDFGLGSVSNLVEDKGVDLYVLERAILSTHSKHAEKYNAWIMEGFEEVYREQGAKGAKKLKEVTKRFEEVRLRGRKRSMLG

[26] = molecular target: T4, Glycogen synthase kinase-3 beta; assay: Percent residual GSK3-beta activity in the presence of 10uM inhibitor
Target sequence in this assay (P49841 whole entry, looked up): as the sequence (P49841 whole entry) above

[27] = molecular target: Receptor-type tyrosine-protein kinase FLT3 (Homo sapiens) (UniProt P36888); assay: Percent residual Flt-3 activity in the presence of 10uM inhibitor

Row | Structure (SMILES) | Activity [1] [%] | Activity [5] [%] | Activity [8] [%] | Activity [9] [%] | Activity [13] [%] | Activity [14] [%] | IC50 [18] [µM] | Activity [19] [%] | Activity [21] [%] | Activity [23] [%] | Activity [24] [%] | Activity [25] [%] | Activity [26] [%] | further results
1 | O=C(O)Cc1c2ccccc2n2c1[nH]c(=O)c1ccccc12 | 77 | 92 | 96 | 85 | 91 | 76 | 11 | 100 | 70 | 101 | 92 | 100 | 66 | Activity [2]: 80%; IC50 [3]: 8 µM; Activity [4]: 80%; Activity [6]: 80%; IC50 [7]: > 200 µM; Activity [10]: 80%; IC50 [11]: 11 µM; Activity [12]: 80%; Activity [15]: 80%; Activity [16]: 80%; Activity [17]: 80%; IC50 [20]: 14 µM; Activity [22]: 80%; Activity [27]: 80%
2 | O=c1cc(-c2ccc(O)cc2)oc2cc(O)cc(O)c12 [APIGENIN] | 106 | 83 | 102 | 41 | 86 | 93 | 4.29 | 92 | 91 | 101 | 57 | 103 | 54 | –
3 | Cc1cc(O)c2c(c1)C(=O)c1cc(O)cc(O)c1C2=O [EMODIN] | 79 | 88 | 92 | 55 | 103 | 81 | 7.3 | 101 | 82 | 92 | 89 | 90 | 68 | –
